Data taken from publication PMC10786692 (The Journal of Clinical Investigation, 2024).

System: γH2AX
Assay: PBMC γH2AX immunofluorescence (% cells with >5 foci)
Type: in vivo, human
Details: after treatment at the RP2D, most subjects
Description: PD sampling took place at baseline (within 7 days prior to dosing) and between days 15 and 22 of dosing (day 14 for intermittent dosing cohorts). PD samples included PBMCs and tumor biopsies. PBMCs were analyzed by immunofluorescence for γ^(S139)H2AX, p-^(S345)Chk1, and total Chk1, as described in Supplemental Methods. Paired tumor biopsies were formalin fixed and analyzed for nuclear p-^(S635)Rad50 and γH2AX by IHC.
PBMCs were isolated from blood using BD Vacutainer® CPT™ Cell preparation tubes with sodium citrate (BD Biosciences, Wokingham, UK) and fixed with 4% formalin containing 1% Triton™ X-100 (Sigma-Aldrich, St. Louis, MO). […] A Carl Zeiss LSM 700 confocal laser scanning fluorescence microscope (Zeiss, Jena, Germany) was used to visualize and capture images of the PBMCs. Fluorescent nuclear intensity for phospho-(S345) and total Chk1 in individual PBMC cells were quantified using the IN Cell Investigator Developer Toolbox v1.9 software (GE Healthcare Biosciences, Piscataway, NJ). For the phospho(S345)- and total Chk1 assays: the raw data values (fluorescent nuclear intensity for PBMCs), the percentage change for phospho(S345) biomarker was calculated for each subject by comparing the levels measured at each post-dose time point to pre-dose levels measured at baseline. […]
Peripheral blood was drawn into 8 mL EDTA tubes (Vacutainer, BD) and analyzed within 24 hours. […]

SMILES: C[C@@H]1COCCN1c1cc(C2([S@](C)(=N)=O)CC2)nc(-c2cc[nH]c3nccc2-3)n1 [ceralasertib]
- γH2AX positivity in PBMCs: Increased
